Measured values published in US20130196934A1, “COMPOSITION FOR PERINATAL AND NEONATAL STROKE” (priority 2010, published 2013).

Test system: red blood cell (RBC)
Assay: Cell-based antioxidant protection in erythrocytes (CAP-e) assay
Settings: human RBC, AAPH; biphasic dose response; FIG. 2
Excerpt: As a model cell type, red blood cell (RBC) was used. This is an inert cell type, in contrast to other cell types such as PMN cells as described in section 2, where pro-inflammatory compounds may induce the reactive oxidative burst, or anti-inflammatory compounds may perform cellular signaling and change the behavior of the PMN cell, at doses many times below levels of detection for antioxidants. This assay was developed particularly to be able to assess antioxidants from complex natural products in a cell-based system. Human RBC were washed repeatedly physiological saline, and then exposed to the test products. During the incubation with the test products, any antioxidant compounds able to cross the cell membrane will enter the interior of the RBC. Then the RBC are washed to remove compounds that were not absorbed by the cells, loaded with the DCF-DA dye, which turns fluorescent upon exposure to reactive oxygen species. Oxidation was triggered by addition of the peroxyl free radical generator AAPH. The fluorescence intensity was evaluated. The low fluorescence intensity of untreated control cells served as a baseline, and RBC treated with AAPH alone served as a positive control for maximum oxidative damage.

Structure (SMILES): O=C[C@H](O)[C@H](O)[C@H](O)CO [ribose, Ribose]
- antioxidant protection of erythrocytes from oxidative damage: protected the erythrocytes
